# Experimental data as given in ChEMBL document CHEMBL4177728, “Protective effects of 6-ureido/thioureido-2,4,5-trimethylpyridin-3-ols against 4-hydroxynonenal-induced cell death in adult retinal pigment epithelial-19 cells” (2018).
# Key:
# [1] = molecular target: NADPH oxidase 4 (Homo sapiens) (UniProt Q9NPH5); assay: (§1) Inhibition of NOX4 in human ARPE19 cells assessed as protection against 4-HNE-induced cell death by measuring cell viability recovery at 10 uM incubated for 24 hrs by MTT assay; assay type: cell-based
# [2] = Antioxidant activity assessed as DPPH radical scavenging activity at 10 uM by spectrphotomery; assay type: functional
# [3] = molecular target: NADPH oxidase 4 (Homo sapiens) (UniProt Q9NPH5); assay: (§2) Inhibition of NOX4 in human ARPE19 cells assessed as suppression of 4-HNE-induced superoxide production at 10 uM pre-incubated for 1 hr before 4-HNE addition for 1 hr by lucigenin chemiluminescence assay; assay type: cell-based
# [4] = molecular target: T1, NADPH oxidase 4 (Homo sapiens) (UniProt Q9NPH5); assay: as §1; assay type: cell-based; remark: listed apart in the source
# T1 sequence (whole entry): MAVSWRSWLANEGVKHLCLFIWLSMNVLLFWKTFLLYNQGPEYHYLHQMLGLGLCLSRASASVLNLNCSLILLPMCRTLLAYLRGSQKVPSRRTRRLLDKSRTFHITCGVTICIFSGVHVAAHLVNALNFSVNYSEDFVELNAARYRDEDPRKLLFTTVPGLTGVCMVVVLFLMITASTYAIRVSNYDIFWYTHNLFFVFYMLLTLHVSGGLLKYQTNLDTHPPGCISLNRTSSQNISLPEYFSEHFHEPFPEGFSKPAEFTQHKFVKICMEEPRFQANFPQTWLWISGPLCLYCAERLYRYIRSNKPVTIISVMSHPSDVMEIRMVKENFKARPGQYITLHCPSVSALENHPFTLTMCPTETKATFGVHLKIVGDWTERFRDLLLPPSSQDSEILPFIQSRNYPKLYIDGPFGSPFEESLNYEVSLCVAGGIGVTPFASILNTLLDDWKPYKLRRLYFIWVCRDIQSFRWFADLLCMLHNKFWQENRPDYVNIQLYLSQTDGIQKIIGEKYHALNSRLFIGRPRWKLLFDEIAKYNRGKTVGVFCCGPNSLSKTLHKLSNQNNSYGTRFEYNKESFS
# [5] = molecular target: T1, NADPH oxidase 4 (Homo sapiens); assay: as §2; assay type: cell-based; remark: listed apart in the source
# [6] = system: ARPE-19; assay: Suppression of 4-HNE-induced apoptosis in human ARPE19 cells assessed as late apoptosis cells level at 20 uM incubated for 24 hrs by FITC Annexin V and propidium iodide staining based flow cytometry (reference value: 23%); assay type: functional
# [7] = system: ARPE-19; assay: Suppression of 4-HNE-induced apoptosis in human ARPE19 cells assessed as early apoptosis cells level at 5 uM incubated for 24 hrs by FITC Annexin V and propidium iodide staining based flow cytometry (reference value: 17.6%); assay type: functional
# [8] = system: ARPE-19; assay: Suppression of 4-HNE-induced apoptosis in human ARPE19 cells assessed as late apoptosis cells level at 10 uM incubated for 24 hrs by FITC Annexin V and propidium iodide staining based flow cytometry (reference value: 23%); assay type: functional
# [9] = system: ARPE-19; assay: Suppression of 4-HNE-induced apoptosis in human ARPE19 cells assessed as viable cells level at 5 uM incubated for 24 hrs by FITC Annexin V and propidium iodide staining based flow cytometry (reference value: 59.1%); assay type: functional
# [10] = system: ARPE-19; assay: Suppression of 4-HNE-induced apoptosis in human ARPE19 cells assessed as early apoptosis cells level at 20 uM incubated for 24 hrs by FITC Annexin V and propidium iodide staining based flow cytometry (reference value: 17.6%); assay type: functional
# [11] = system: ARPE-19; assay: Suppression of 4-HNE-induced apoptosis in human ARPE19 cells assessed as viable cells level at 20 uM incubated for 24 hrs by FITC Annexin V and propidium iodide staining based flow cytometry (reference value: 59.1%); assay type: functional
# [12] = system: ARPE-19; assay: Suppression of 4-HNE-induced apoptosis in human ARPE19 cells assessed as necrosis cells level at 20 uM incubated for 24 hrs by FITC Annexin V and propidium iodide staining based flow cytometry (reference value: 0.342%); assay type: functional
# [13] = system: ARPE-19; assay: Suppression of 4-HNE-induced apoptosis in human ARPE19 cells assessed as late apoptosis cells level at 5 uM incubated for 24 hrs by FITC Annexin V and propidium iodide staining based flow cytometry (reference value: 23%); assay type: functional
# [14] = system: ARPE-19; assay: Suppression of 4-HNE-induced apoptosis in human ARPE19 cells assessed as necrosis cells level at 10 uM incubated for 24 hrs by FITC Annexin V and propidium iodide staining based flow cytometry (reference value: 0.342%); assay type: functional
# [15] = system: ARPE-19; assay: Suppression of 4-HNE-induced apoptosis in human ARPE19 cells assessed as viable cells level at 10 uM incubated for 24 hrs by FITC Annexin V and propidium iodide staining based flow cytometry (reference value: 59.1%); assay type: functional
# [16] = system: ARPE-19; assay: Suppression of 4-HNE-induced apoptosis in human ARPE19 cells assessed as necrosis cells level at 5 uM incubated for 24 hrs by FITC Annexin V and propidium iodide staining based flow cytometry (reference value: 0.342%); assay type: functional
# [17] = system: ARPE-19; assay: Suppression of 4-HNE-induced apoptosis in human ARPE19 cells assessed as early apoptosis cells level at 10 uM incubated for 24 hrs by FITC Annexin V and propidium iodide staining based flow cytometry (reference value: 17.6%); assay type: functional
# [18] = molecular target: T1, NADPH oxidase 4 (Homo sapiens); assay: Inhibition of NOX4 in human ARPE19 cells assessed as protection against 4-HNE-induced cell death by measuring cell viability recovery incubated for 24 hrs by MTT assay; assay type: cell-based
Molecule,Activity [2],Activity [4],inhibition [5],other results
VITAMIN E,10.2%,–,–,Activity [1]: 9.8%; inhibition [3]: 3.9%
Cc1nc(NC(=S)Nc2ccc(Cl)cc2)c(C)c(C)c1O,6.5%,12.8%,13%,–
Cc1nc(NC(=S)Nc2ccccc2)c(C)c(C)c1O,5.6%,8.9%,2.3%,–
Cc1ccc(S(=O)(=O)NC(=O)Nc2nc(C)c(O)c(C)c2C)cc1,5.7%,32.5%,28.6%,–
Cc1nc(NC(=S)NC(=O)c2ccccc2)c(C)c(C)c1O,4.9%,63.1%,68.7%,–
CCNC(=S)Nc1nc(C)c(O)c(C)c1C,13.3%,44.9%,36.7%,–
Cc1nc(NC(=O)NC(=O)c2ccccc2)c(C)c(C)c1O,6.7%,1.5%,8.8%,–
Cc1cccc(C(C)(C)C)c1NC(=O)Nc1nc(C)c(O)c(C)c1C,3.3%,12.8%,8.9%,–
Cc1ccc(NC(=O)Nc2nc(C)c(O)c(C)c2C)cc1,3.4%,5.3%,6.2%,–
Cc1nc(NC(=S)NC(C)C)c(C)c(C)c1O,5.5%,14.7%,13.9%,–
COc1ccc(NC(=O)Nc2nc(C)c(O)c(C)c2C)cc1,7.4%,10.8%,5.8%,–
Cc1nc(NC(=S)Nc2ccc(C(F)(F)F)cc2)c(C)c(C)c1O,6.7%,40.4%,30.5%,–
Cc1nc(NC(=O)Nc2ccc(C(C)C)cc2)c(C)c(C)c1O,4.2%,-5.1%,-1.3%,–
Cc1nc(NC(=S)Nc2ccc(Br)cc2)c(C)c(C)c1O,7.4%,33.5%,22.8%,–
COc1ccc(NC(=S)Nc2nc(C)c(O)c(C)c2C)cc1,4.7%,23.2%,17.7%,–
Cc1nc(NC(=S)Nc2cccc(C(F)(F)F)c2)c(C)c(C)c1O,7.6%,29.6%,20.1%,–
Cc1nc(NC(=O)Nc2ccc(Br)cc2)c(C)c(C)c1O,4%,7.3%,0.9%,–
Cc1nc(NC(=O)Nc2ccc(OC(F)(F)F)cc2)c(C)c(C)c1O,6.1%,58.4%,51.1%,–

Molecule,Activity [2],Activity [4],inhibition [5],other results
O=C1O[C@H]([C@@H](O)CO)C(O)=C1O,10.2%,8.2%,3.4%,–
c1ccc(Cn2nnc3c(Sc4nc5ccccc5o4)ncnc32)cc1,6.9%,79.4%,78.7%,Activity [6]: 1.81%; Activity [7]: 11.8%; Activity [8]: 4.42%; Activity [9]: 80.4%; Activity [10]: 2.87%; Activity [11]: 95.2%; Activity [12]: 0.145%; Activity [13]: 7.66%; Activity [14]: 0.254%; Activity [15]: 89.8%; Activity [16]: 0.25%; Activity [17]: 5.62%
Cc1nc(NC(=O)Nc2ccc([N+](=O)[O-])cc2)c(C)c(C)c1O,5.2%,13.9%,8.3%,–
CCCCCCCCNC(=S)Nc1nc(C)c(O)c(C)c1C,14.6%,45.9%,40.7%,–
Cc1nc(NC(=O)Nc2ccc(F)cc2)c(C)c(C)c1O,7.4%,6.2%,6.9%,–
CCCCNC(=S)Nc1nc(C)c(O)c(C)c1C,5.9%,85.1%,79.5%,Activity [6]: 0.079%; Activity [7]: 6.84%; Activity [8]: 3.38%; Activity [9]: 88.6%; Activity [10]: 0.112%; Activity [11]: 99.7%; Activity [12]: 0.067%; Activity [13]: 4.24%; Activity [14]: 0.134%; Activity [15]: 93.4%; Activity [16]: 0.335%; inhibition [18]: Dose-dependent effect; Activity [17]: 3.06%
Cc1nc(NC(=O)Nc2cccc3ccccc23)c(C)c(C)c1O,6.3%,7.3%,2.4%,–
Cc1nc(NC(=O)Nc2ccc(Cl)cc2)c(C)c(C)c1O,6.2%,43.6%,30.8%,–
Cc1nc(NC(=O)Nc2ccccc2)c(C)c(C)c1O,5.8%,8.9%,7.1%,–
CCCCCCNC(=S)Nc1nc(C)c(O)c(C)c1C,16.5%,22.8%,17.9%,–
Cc1nc(NC(=O)NCc2ccccc2)c(C)c(C)c1O,6%,10.5%,4.6%,–
Cc1nc(NC(=S)Nc2ccc([N+](=O)[O-])cc2)c(C)c(C)c1O,5.5%,77.7%,71.8%,inhibition [18]: Dose-dependent effect
Cc1nc(NC(=O)Nc2ccc(C(F)(F)F)cc2)c(C)c(C)c1O,5.9%,44.2%,41.3%,–
CCCNC(=O)Nc1nc(C)c(O)c(C)c1C,5.5%,12.5%,9.4%,–
Cc1nc(NC(=S)Nc2ccc(Cl)c(Cl)c2)c(C)c(C)c1O,6.6%,24.9%,19%,–
Cc1ccc(NC(=S)Nc2nc(C)c(O)c(C)c2C)cc1,6.9%,54%,41.3%,–
Cc1nc(NC(=S)NC2CCCCC2)c(C)c(C)c1O,7.1%,62.2%,61.9%,–
